Laboratory results published in the supplement of paper PMC10307832.

How the values were obtained:
Assay in all cases: relative viability (nuclei count vs DMSO), 5 days (fraction); higher = more cells survive
Wnt-C59 + OSI-027 = compound: CC1=NC=CC(=C1)C2=CC=C(C=C2)CC(=O)NC3=CC=C(C=C3)C4=CN=CC=C4 [Wnt-C59] + COc1cccc2cc(-c3nc([C@H]4CC[C@H](C(=O)O)CC4)n4ncnc(N)c34)[nH]c12 [OSI-027] (partner 0.5 µM)
Method in brief: (§1)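 For relative viability, nuclei counts in treated wells were divided by those in vehicle wells. Lung cancer cell lines had been pin-tool dosed in 1536-well plates the day after seeding and cultured for 5 days, then fixed and stained in one step (final 0.05% Triton X-100, 1% formaldehyde, 1 ug/ml Hoechst) and imaged at 4×. Doses were one drug alone or a fixed anchor-drug dose plus five library-drug doses (not always all listed) in √10 steps, and values are duplicate-plate medians.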

Lapatinib + Pictilisib = compound: CS(=O)(=O)CCNCc1ccc(-c2ccc3ncnc(Nc4ccc(OCc5cccc(F)c5)c(Cl)c4)c3c2)o1 [Lapatinib] + CS(=O)(=O)N1CCN(Cc2cc3nc(-c4cccc5[nH]ncc45)nc(N4CCOCC4)c3s2)CC1 [Pictilisib] (partner 1 µM)
Method in brief: as §1

Wnt-C59 + Pictilisib = compound: CC1=NC=CC(=C1)C2=CC=C(C=C2)CC(=O)NC3=CC=C(C=C3)C4=CN=CC=C4 [Wnt-C59] + CS(=O)(=O)N1CCN(Cc2cc3nc(-c4cccc5[nH]ncc45)nc(N4CCOCC4)c3s2)CC1 [Pictilisib] (partner 1 µM)
Method in brief: as §1

Lapatinib + Linsitinib = compound: CS(=O)(=O)CCNCc1ccc(-c2ccc3ncnc(Nc4ccc(OCc5cccc(F)c5)c(Cl)c4)c3c2)o1 [Lapatinib] + C[C@]1(O)C[C@@H](c2nc(-c3ccc4ccc(-c5ccccc5)nc4c3)c3c(N)nccn32)C1 [Linsitinib] (partner 1 µM)
Method in brief: as §1

Cell Line | relative viability (Wnt-C59 + OSI-027; first compound 0.001 µM) | relative viability (Wnt-C59 + OSI-027; first compound 0.01 µM) | relative viability (Wnt-C59 + OSI-027; first compound 0.03162 µM) | relative viability (Wnt-C59 + OSI-027; first compound 0.1 µM) | relative viability (Lapatinib + Pictilisib; first compound 0.06325 µM) | relative viability (Lapatinib + Pictilisib; first compound 0.2 µM) | relative viability (Lapatinib + Pictilisib; first compound 0.6325 µM) | relative viability (Lapatinib + Pictilisib; first compound 2 µM) | relative viability (Wnt-C59 + Pictilisib; first compound 0.001 µM) | relative viability (Wnt-C59 + Pictilisib; first compound 0.01 µM) | relative viability (Wnt-C59 + Pictilisib; first compound 0.03162 µM) | relative viability (Wnt-C59 + Pictilisib; first compound 0.1 µM) | relative viability (Lapatinib + Linsitinib; first compound 0.06325 µM) | relative viability (Lapatinib + Linsitinib; first compound 0.2 µM) | relative viability (Lapatinib + Linsitinib; first compound 0.6325 µM) | relative viability (Lapatinib + Linsitinib; first compound 2 µM) | relative viability (Lapatinib + Pictilisib; first compound 0.02 µM) | relative viability (Lapatinib + Linsitinib; first compound 0.02 µM)
ABC-1 | 0.441 | 0.597 | 0.435 | 0.389 | 0.655 | 1.09 | 0.93 | 0.696 | 0.685 | 0.817 | 0.76 | 0.6 | 0.813 | 0.871 | 0.773 | 0.504 | – | –
SW 1573 | 0.684 | 0.659 | 0.63 | 0.639 | 0.444 | 0.61 | 0.452 | 0.533 | 0.452 | 0.544 | 0.563 | 0.404 | 0.82 | 0.76 | 0.784 | 0.794 | 0.471 | 0.843
NCI-H1299 | – | – | – | – | 0.768 | 0.859 | 0.801 | 0.803 | 0.739 | 0.476 | 0.756 | 0.793 | 0.923 | 0.98 | 1 | 1.05 | 0.871 | 0.973
HCC-827 | 0.877 | 0.724 | 0.9 | 0.761 | 1.13 | 0.891 | 1.02 | 0.574 | 0.83 | 1.07 | 1.15 | 0.971 | 0.986 | 0.928 | 1.05 | 0.936 | 0.947 | 0.944
201T | 0.717 | 0.725 | 0.761 | 0.627 | 0.656 | 0.675 | 0.659 | 0.638 | 0.704 | 0.676 | 0.676 | 0.698 | 0.92 | 1 | 1.04 | 0.909 | 0.603 | 0.96
HCC-15 | 0.641 | 0.718 | 0.647 | 0.752 | 0.734 | 0.767 | 0.725 | 0.638 | 0.74 | 0.711 | 0.732 | 0.723 | 0.857 | 0.954 | 0.814 | 0.599 | – | –
NCI-H2347 | 0.365 | 0.474 | 0.51 | 0.457 | 0.673 | 0.663 | 0.646 | 0.873 | 0.628 | 0.566 | 0.86 | 0.634 | 0.97 | 1.01 | 0.929 | 0.926 | 0.598 | 0.963
NCI-H596 | 0.733 | 0.499 | 0.952 | 0.719 | 0.388 | 0.4 | 0.415 | 0.407 | 0.43 | 0.437 | 0.381 | 0.421 | 1.02 | 1.09 | 1.19 | 0.839 | 0.39 | 1.11
LXF-289 | 0.779 | 0.807 | 0.828 | 0.809 | 0.717 | 0.744 | 0.784 | 0.737 | 0.767 | 0.774 | 0.853 | 0.794 | 0.913 | 0.982 | 0.902 | 0.816 | 0.762 | 0.983
NCI-H1755 | 0.8 | 0.72 | 0.644 | 0.663 | 0.363 | 0.433 | 0.437 | 0.371 | 0.374 | 0.433 | 0.459 | 0.433 | 0.963 | 0.982 | 0.95 | 0.714 | 0.244 | 0.983
NCI-H2405 | 0.633 | 0.554 | 0.579 | 0.476 | 0.412 | 0.428 | 0.398 | 0.397 | 0.433 | – | 0.406 | 0.432 | 0.805 | 0.918 | 0.973 | 0.768 | – | –
NCI-H2170 | 0.748 | 0.468 | 0.872 | 0.491 | 0.207 | 0.275 | 0.244 | 0.237 | 0.3 | 0.279 | 0.309 | 0.383 | – | – | – | – | 0.281 | –
NCI-H1648 | 0.292 | 0.285 | 0.292 | 0.246 | – | – | – | – | – | – | – | – | – | – | – | – | – | –
NCI-H2342 | 0.57 | 0.527 | 0.646 | 0.613 | – | – | – | – | – | – | – | – | – | – | – | – | – | –
HARA | 0.478 | 0.337 | 0.64 | 0.518 | 0.261 | 0.527 | 0.33 | 0.288 | 0.32 | 0.523 | 0.402 | 0.6 | 0.686 | 0.808 | 0.755 | 0.243 | 0.418 | 0.782
H3255 | 0.683 | 0.58 | 0.685 | 0.545 | 0.403 | 0.397 | 0.284 | 0.155 | 0.565 | 0.359 | 0.431 | 0.49 | 0.767 | 0.783 | 0.693 | 0.196 | 0.452 | 0.92
NCI-H1563 | 0.711 | 0.784 | 0.761 | 0.728 | 0.643 | 0.6 | 0.725 | 0.693 | 0.604 | 0.665 | 0.721 | 0.646 | 1.13 | 1.03 | 1.2 | 1.12 | 0.592 | 1.12
NCI-H322M | 0.53 | 0.498 | 0.442 | 0.399 | 0.31 | 0.483 | 0.504 | 0.404 | 0.517 | 0.426 | 0.491 | 0.414 | 0.839 | 0.803 | 0.767 | 0.592 | 0.555 | 0.931
EBC-1 | – | – | – | – | 0.368 | 0.364 | 0.386 | 0.256 | 0.444 | 0.349 | 0.299 | 0.418 | 0.883 | 0.888 | 0.938 | 0.886 | 0.467 | 0.904
A549 | – | – | – | – | 0.401 | 0.468 | 0.456 | 0.506 | 0.534 | 0.541 | 0.408 | 0.484 | 0.433 | 0.555 | 0.473 | 0.425 | 0.477 | –
NCI-H1623 | 0.429 | 0.383 | 0.416 | 0.453 | – | – | – | – | – | – | – | – | – | – | – | – | – | –
